Columns and labels:
Type in all cases: in vivo
narkosierten Hund = assay: Blood pressure lowering in the anaesthetised dog (pentobarbital sodium), i.v. administration; conditions: 1 mg/kg intravenous; for Blutdrucksenkung: significant lowering; for Dauer der Blutdrucksenkung: time over which lowering of at least 20 mm persists
Procedure: (§1) 1)Die blutdrucksenkende Wirkung wurde am narkosierten Hund und an der Hochdruckratete bestimmt.
Hunde werden mit Pentobarbital-Natrium (^(R)Nembutal) (35 mg/kg i.p.) narkotisiert, die Prüfsubstanz in Dosen von 0,5-5 mg/kg. intravenös appliziert und die Blutdrucksenkung laufend über 30 bis 60 Minuten, bei längerer Wirksamkeit auch länger, fortlaufend registriert. Eine signifikante Senkung von mindestens 20 mm über mindestens 30 Minuten tritt z.B. nach Applikation der Verbindungen der Beispiele Nr. 6 und 31b in Dosen von jeweils 1 mg/kg ein.

[1] = system: mit Strophantin vergiftete Hund; assay: Antiarrhythmic effect in the strophanthin-poisoned dog (ventricular extrasystoles, ECG); conditions: dog poisoned with K-Strophanthin i.v. infusion until frequent ventricular extrasystoles; 1 mg/kg intravenous; active = arrhythmia completely abolished
Text: 2) Zur Prüfung auf antiarrythmische Wirkung wird der mit Strophantin vergiftete Hund verwendet (Methode: Laszlo Szekeres, Institute of Pharmacology, University Medical School of Szeged, Hungary, Methods for Evaluating Antiarrhytmic Agents" in Methods in Pharmacology I, New York 1971, Herausgeber A. Schwartz).

[2] = system: genetischen Hochdruckratte; assay: Blood pressure lowering in the genetically hypertensive rat, oral administration; conditions: 15 mg/kg per os, within 18 hours
Procedure: as §1
Zur Prüfung an der genetischen Hochdruckratte werden die Substanzen oral verabreicht. Die Verbindung des Beispiels 31b bewirkt bei einer Dosierung von 15 mg/kg per os innerhalb von 18 Stunden einen Blutdruckabfall von 30 - 50 mm.

Compound	Blutdrucksenkung (narkosierten Hund) [mm]	Dauer der Blutdrucksenkung (narkosierten Hund) [Minuten]	antiarrythmische Wirkung (Beseitigung der Rhythmusstörungen) [1]	Blutdruckabfall [2]
COc1cc2c(cc1OC)N=C(N1CCC(NC(=O)c3ccccc3)CC1)CC2 [Beispiel 6]	≥ 20	≥ 30		
CC(C)(C)OC(=O)NC1CCN(C2=Nc3ccccc3CC2)CC1 [Beispiel 31a, 2-(4-Tert.butyloxycarbonylamino-1-piperidyl)-3,4-dihydro-chinolin]			Rhythmusstörungen völlig zu beseitigen vermochte	
NC1CCN(C2=Nc3ccccc3CC2)CC1 [Beispiel 31b, 2-(4-Amino-1-piperidyl)-3,4-dihydrochinolin]	≥ 20	≥ 30		30 - 50 mm
